The numbers were not newly measured in patent US20240016859A1, “MICROENCAPSULATED AND CHROMOSOME INTEGRATED COMPOSITIONS FOR L-DOPA MICROBIOME THERAPY” (Iowa State University Research Foundation, Inc., priority 2020, published 2024), which cites them from elsewhere.

Consider `N[C@@H](Cc1ccc(O)c(O)c1)C(=O)O` [Levodopa, (−)-L-a-amino-b-(3,4-dihydroxybenzene)propanoic acid], for which the solubility in water entry is reported as “slightly soluble”.
